According to US9302999B2, “Substituted triazoles as herbicides” (E. I. DU PONT DE NEMOURS AND COMPANY, priority 2012, dated 2016):
Where two headings read alike, the source gives them in different places.

Columns and labels:
Assay type in all cases: in vivo
[1] = system: barnyardgrass (Echinochloa crus-galli); assay: Test A pre-/postemergence: barnyardgrass; settings: for pest or weed control at 125 g/ha / pest or weed control at 500 g/ha: Echinochloa crus-galli, 240 h
Summary of the method: (§1)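 Pre: directed soil spray after planting in loam + sand. Post: same formulation (non-phytotoxic solvent + surfactant) on 1–2-leaf plants, 2–10 cm. Greenhouse ~10 d; visual injury 0–100 vs untreated.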

[2] = system: morningglory (Ipomoea spp.); assay: Test A pre-/postemergence: morningglory; settings: for pest or weed control at 125 g/ha / pest or weed control at 500 g/ha: Ipomoea, 240 h
Summary of the method: as §1

[3] = system: velvetleaf (Abutilon theophrasti); assay: Test A pre-/postemergence: velvetleaf; settings: for pest or weed control at 125 g/ha / pest or weed control at 500 g/ha: Abutilon theophrasti, 240 h
Summary of the method: as §1

[4] = system: ducksalad (Heteranthera limosa); assay: Test B flooded paddy: ducksalad; settings: Flood, applied to paddy water at 2-leaf stage, visually evaluated after 13 to 15 days
Summary of the method: (§2)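 Paddy-water application: seedlings at 2-leaf stage, flood depth 3 cm maintained for the test duration. Evaluation after 13–15 days in the greenhouse by eye relative to controls; 0–100 scale.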

[5] = system: barnyardgrass (Echinochloa crus-galli); assay: Test B flooded paddy: barnyardgrass; settings: Flood, applied to paddy water at 2-leaf stage, visually evaluated after 13 to 15 days
Summary of the method: as §2

corn (Zea mays) = assay: Test C pre-/postemergence: corn
Summary of the method: (§3)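 Preemergence on seeds in loam/sand, postemergence on 2–18 cm (1–4-leaf) plants in peat-based medium; compounds in non-phytotoxic solvent with surfactant. After 13–15 days in greenhouse, visual rating versus controls, 0 (no effect) to 100 (complete control).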

[6] = system: large crabgrass (Digitaria sanguinalis); assay: Test C pre-/postemergence: large crabgrass
Summary of the method: as §3

[7] = system: foxtail, giant (giant foxtail, Setaria faberii); assay: Test C pre-/postemergence: foxtail, giant
Summary of the method: as §3

kochia (Kochia scoparia) = assay: Test C pre-/postemergence: kochia; settings: Postemergence
Summary of the method: as §3

soybean (Glycine max) = assay: Test C pre-/postemergence: soybean
Summary of the method: as §3

[8] = system: chickweed (common chickweed, Stellaria media); assay: Test C postemergence: chickweed
Summary of the method: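 Greenhouse pot test; foliar postemergence treatment at 1- to 4-leaf stage. Rated visually at 13 to 15 days on a 0–100 control scale relative to untreated plants.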

[9] = Postemergence, 31 g ai/ha, scale 0 to 100 (0 no effect, 100 complete control)
[10] = Postemergence, 62 g ai/ha, scale 0 to 100 (0 no effect, 100 complete control)
[11] = Postemergence, 125 g ai/ha, scale 0 to 100, 0 no effect, 100 complete control
[12] = Postemergence, 250 g ai/ha, scale 0 to 100
[13] = Preemergence, 31 g ai/ha, scale 0 (no effect) to 100 (complete control)
[14] = Preemergence, 62 g ai/ha, scale of 0 to 100, 0 is no effect, 100 is complete control
[15] = Preemergence, 125 g ai/ha, scale 0 to 100, 0 no effect, 100 complete control
[16] = Preemergence, 250 g ai/ha, scale 0 to 100, 0 no effect, 100 complete control
[17] = 31 g ai/ha, scale 0 to 100 (0 no effect, 100 complete control)
[18] = 62 g ai/ha, scale 0 to 100 (0 no effect, 100 complete control)
[19] = 125 g ai/ha, scale 0 to 100, 0 no effect, 100 complete control
[20] = Postemergence, 125 g ai/ha, 0 to 100 scale, 0 is no effect, 100 is complete control
[21] = Postemergence, 500 g ai/ha, 0 to 100 scale, 0 is no effect, 100 is complete control
[22] = Preemergence, 125 g ai/ha, 0 to 100 scale where 0 is no effect and 100 is complete control
[23] = Preemergence, 500 g ai/ha, 0 to 100 scale (0 no effect, 100 complete control)

`CCOc1nn(-c2ccc(C(F)(F)F)cc2)nc1Cc1ccnc(C(F)(F)F)c1` [Compound 164, 4-[[5-ethoxy-2-[4-(trifluoromethyl)phenyl]-2H-1,2,3-triazol-4-yl]methyl]-2-(trifluoromethyl)pyridine] was tested, and the pest or weed control at 125 g/ha ([1]; post-emergence, Postemergence, 125 g ai/ha, 0 to 100 scale, 0 is no effect, 100 is complete control, read-out: Plant response rating, Barnyardgrass) was 90%, the pest or weed control at 500 g/ha ([1]; post-emergence, Postemergence, 500 g ai/ha, 0 to 100 scale, 0 is no effect, 100 is complete control, read-out: Barnyardgrass plant response rating) was 90% and the pest or weed control at 125 g/ha ([1]; pre-emergence, Preemergence, 125 g ai/ha, 0 to 100 scale where 0 is no effect and 100 is complete control, read-out: Plant response rating, Barnyardgrass) was 90%. The pest or weed control at 500 g/ha ([1]; pre-emergence, Preemergence, 500 g ai/ha, 0 to 100 scale (0 no effect, 100 complete control), read-out: Plant response rating, Barnyardgrass) was 100%, the pest or weed control at 125 g/ha ([2]; post-emergence, Postemergence, 125 g ai/ha, 0 to 100 scale, 0 is no effect, 100 is complete control, read-out: Plant response rating, Morningglory) was 100% and the pest or weed control at 500 g/ha ([2]; post-emergence, Postemergence, 500 g ai/ha, 0 to 100 scale, 0 is no effect, 100 is complete control, read-out: Morningglory plant response rating) was 100%. It also gave a pest or weed control at 125 g/ha ([2]; pre-emergence, Preemergence, 125 g ai/ha, 0 to 100 scale where 0 is no effect and 100 is complete control, read-out: Plant response rating, Morningglory) of 80%, a pest or weed control at 500 g/ha ([2]; pre-emergence, Preemergence, 500 g ai/ha, 0 to 100 scale (0 no effect, 100 complete control), read-out: Plant response rating, Morningglory) of 90% and a pest or weed control at 125 g/ha ([3]; post-emergence, Postemergence, 125 g ai/ha, 0 to 100 scale, 0 is no effect, 100 is complete control, read-out: Plant response rating, Velvetleaf) of 100%. The pest or weed control at 500 g/ha ([3]; post-emergence, Postemergence, 500 g ai/ha, 0 to 100 scale, 0 is no effect, 100 is complete control, read-out: Velvetleaf plant response rating) was 100%, the pest or weed control at 125 g/ha ([3]; pre-emergence, Preemergence, 125 g ai/ha, 0 to 100 scale where 0 is no effect and 100 is complete control, read-out: Plant response rating, Velvetleaf) was 80% and the pest or weed control at 500 g/ha ([3]; pre-emergence, Preemergence, 500 g ai/ha, 0 to 100 scale (0 no effect, 100 complete control), read-out: Plant response rating, Velvetleaf) was 100%. The “Plant response rating, Ducksalad (0 to 100 scale, 0 is no effect, 100 is complete control)” value ([4]; 125 g ai/ha) was 0, the “Plant response rating, Barnyardgrass (0 to 100 scale, 0 is no effect, 100 is complete control)” value ([5]; 125 g ai/ha) was 60 and the “Plant response rating, Corn” value (corn (Zea mays); [9]) was 15. For the same molecule, the “Plant response rating, Corn” value (corn (Zea mays); [10]) was 15, the “Plant response rating, Corn” value (corn (Zea mays); [11]) was 20 and the “Plant response rating, Corn” value (corn (Zea mays); [12]) was 20. The “Plant response rating, Corn” value (corn (Zea mays); [13]) was 0, the “Plant response rating, Corn” value (corn (Zea mays); [14]) was 5 and the “Plant response rating, Corn” value (corn (Zea mays); [15]) was 10. For the same molecule, the “Plant response rating, Corn” value (corn (Zea mays); [16]) was 10, the “Plant response rating, Crabgrass, Large” value [6, 9] was 5 and the “Plant response rating, Crabgrass, Large” value [6, 10] was 5. For the same molecule, the “Plant response rating, Crabgrass, Large” value [6, 11] was 10, the “Plant response rating, Crabgrass, Large” value [6, 12] was 10 and the “Plant response rating, Crabgrass, Large” value [6, 13] was 70. For the same molecule, the “Plant response rating, Crabgrass, Large” value [6, 14] was 75, the “Plant response rating, Crabgrass, Large” value [6, 15] was 98 and the “Plant response rating, Crabgrass, Large” value [6, 16] was 100. The “Plant response rating, Foxtail, Giant” value [7, 9] was 10, the “Plant response rating, Foxtail, Giant” value [7, 10] was 20 and the “Plant response rating, Foxtail, Giant” value [7, 11] was 20. The “Plant response rating, Foxtail, Giant” value [7, 12] was 35, the “Plant response rating, Foxtail, Giant” value [7, 13] was 50 and the “Plant response rating, Foxtail, Giant” value [7, 14] was 65. The “Plant response rating, Foxtail, Giant” value [7, 15] was 98, the “Plant response rating, Foxtail, Giant” value [7, 16] was 100 and the “Plant response rating, Kochia” value (kochia (Kochia scoparia); [17]) was 40. For the same molecule, the “Plant response rating, Kochia” value (kochia (Kochia scoparia); [18]) was 40, the “Plant response rating, Kochia” value (kochia (Kochia scoparia); [19]) was 40 and the “Plant response rating, Kochia” value (kochia (Kochia scoparia); 250 g ai/ha, scale 0 to 100) was 90. The “Plant response rating, Soybean” value (soybean (Glycine max); [9]) was 30, the “Plant response rating, Soybean” value (soybean (Glycine max); [10]) was 40 and the “Plant response rating, Soybean” value (soybean (Glycine max); [12]) was 50. The “Plant response rating, Soybean” value (soybean (Glycine max); [13]) was 0, the “Plant response rating, Soybean” value (soybean (Glycine max); [14]) was 0 and the “Plant response rating, Soybean” value (soybean (Glycine max); [15]) was 5. For the same molecule, the “Plant response rating, Soybean” value (soybean (Glycine max); [16]) was 5, the “Plant response rating, Chickweed” value [8, 17] was 10 and the “Plant response rating, Chickweed” value [8, 18] was 40. For the same molecule, the “Plant response rating, Chickweed” value [8, 19] was 45 and the “Plant response rating, Chickweed” value ([8]; 250 g ai/ha, scale 0 to 100) was 45.
In the case of `CCc1nn(-c2ccc(C(F)(F)F)cc2)nc1Oc1ccnc(C(F)(F)F)c1` [Compound 169], the “Plant response rating, Barnyardgrass” value [1, 20] is reported as 80, the “Barnyardgrass plant response rating” value [1, 21] is reported as 90 and the “Plant response rating, Barnyardgrass” value [1, 22] is reported as 80. For the same molecule, the “Plant response rating, Barnyardgrass” value [1, 23] was 90, the “Plant response rating, Morningglory” value [2, 22] was 20 and the “Plant response rating, Morningglory” value [2, 23] was 40. For the same molecule, the “Plant response rating, Velvetleaf” value [3, 20] was 100, the “Velvetleaf plant response rating” value [3, 21] was 100 and the “Plant response rating, Velvetleaf” value [3, 22] was 50. For the same molecule, the “Plant response rating, Velvetleaf” value [3, 23] was 90, the “Plant response rating, Ducksalad (0 to 100 scale, 0 is no effect, 100 is complete control)” value ([4]; 250 g ai/ha) was 85 and the “Plant response rating, Barnyardgrass (0 to 100 scale, 0 is no effect, 100 is complete control)” value ([5]; 250 g ai/ha) was 75. For the same molecule, the “Plant response rating, Corn” value (corn (Zea mays); [9]) was 10, the “Plant response rating, Corn” value (corn (Zea mays); [10]) was 15 and the “Plant response rating, Corn” value (corn (Zea mays); [11]) was 20. For the same molecule, the “Plant response rating, Corn” value (corn (Zea mays); [12]) was 30, the “Plant response rating, Corn” value (corn (Zea mays); [13]) was 5 and the “Plant response rating, Corn” value (corn (Zea mays); [14]) was 5. The “Plant response rating, Corn” value (corn (Zea mays); [15]) was 10, the “Plant response rating, Corn” value (corn (Zea mays); [16]) was 20 and the “Plant response rating, Crabgrass, Large” value [6, 9] was 35. The “Plant response rating, Crabgrass, Large” value [6, 10] was 35, the “Plant response rating, Crabgrass, Large” value [6, 11] was 40 and the “Plant response rating, Crabgrass, Large” value [6, 12] was 80. For the same molecule, the “Plant response rating, Crabgrass, Large” value [6, 13] was 100, the “Plant response rating, Crabgrass, Large” value [6, 14] was 100 and the “Plant response rating, Crabgrass, Large” value [6, 15] was 100. The “Plant response rating, Crabgrass, Large” value [6, 16] was 100, the “Plant response rating, Foxtail, Giant” value [7, 9] was 20 and the “Plant response rating, Foxtail, Giant” value [7, 10] was 65. For the same molecule, the “Plant response rating, Foxtail, Giant” value [7, 11] was 65, the “Plant response rating, Foxtail, Giant” value [7, 12] was 90 and the “Plant response rating, Foxtail, Giant” value [7, 13] was 100. The “Plant response rating, Foxtail, Giant” value [7, 14] was 100, the “Plant response rating, Foxtail, Giant” value [7, 15] was 100 and the “Plant response rating, Foxtail, Giant” value [7, 16] was 100. For the same molecule, the “Plant response rating, Kochia” value (kochia (Kochia scoparia); [17]) was 85, the “Plant response rating, Kochia” value (kochia (Kochia scoparia); [18]) was 90 and the “Plant response rating, Kochia” value (kochia (Kochia scoparia); [19]) was 90. The “Plant response rating, Kochia” value (kochia (Kochia scoparia); 250 g ai/ha, scale 0 to 100 (0 no effect, 100 complete control)) was 90, the “Plant response rating, Soybean” value (soybean (Glycine max); [9]) was 30 and the “Plant response rating, Soybean” value (soybean (Glycine max); [10]) was 30. The “Plant response rating, Soybean” value (soybean (Glycine max); [11]) was 50, the “Plant response rating, Soybean” value (soybean (Glycine max); Postemergence, 250 g ai/ha, scale 0 to 100 (0 no effect, 100 complete control)) was 55 and the “Plant response rating, Soybean” value (soybean (Glycine max); [13]) was 0. The “Plant response rating, Soybean” value (soybean (Glycine max); [14]) was 5, the “Plant response rating, Soybean” value (soybean (Glycine max); [15]) was 10 and the “Plant response rating, Soybean” value (soybean (Glycine max); [16]) was 30. The “Plant response rating, Chickweed” value [8, 17] was 60, the “Plant response rating, Chickweed” value [8, 18] was 60 and the “Plant response rating, Chickweed” value [8, 19] was 95. For the same molecule, the “Plant response rating, Chickweed” value ([8]; 250 g ai/ha, scale 0 to 100) was 100.
